The record followed here is patent publication US6638943B2 (The University of Tennessee Research Foundation, priority 2001, dated 2003).

Where two headings read alike, the source gives them in different places.

Test [1] addresses T1, human α2c-AR (Homo sapiens, UniProt P18825).
T1 construct: expressed in transfected cells
T1 sequence (P18825 1-462): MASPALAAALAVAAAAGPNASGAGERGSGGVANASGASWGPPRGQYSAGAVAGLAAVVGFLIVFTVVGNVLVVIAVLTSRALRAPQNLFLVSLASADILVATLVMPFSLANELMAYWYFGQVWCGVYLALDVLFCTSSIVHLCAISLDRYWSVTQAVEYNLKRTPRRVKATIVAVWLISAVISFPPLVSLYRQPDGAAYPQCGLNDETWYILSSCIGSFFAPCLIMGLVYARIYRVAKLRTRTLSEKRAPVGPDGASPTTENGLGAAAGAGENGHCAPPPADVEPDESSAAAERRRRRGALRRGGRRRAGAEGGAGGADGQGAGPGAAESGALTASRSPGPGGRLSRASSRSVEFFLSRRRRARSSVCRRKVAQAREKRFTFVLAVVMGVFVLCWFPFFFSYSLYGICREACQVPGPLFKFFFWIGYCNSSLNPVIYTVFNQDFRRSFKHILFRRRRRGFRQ
Nature of the test: [3H]Rauwolscine equilibrium competition binding, human α2c-AR expressed in CHO cells.

In test [2] the target is T2, human α2a-AR (Homo sapiens, UniProt P08913).
T2 construct: expressed in transfected cells
T2 sequence (P08913 1-465): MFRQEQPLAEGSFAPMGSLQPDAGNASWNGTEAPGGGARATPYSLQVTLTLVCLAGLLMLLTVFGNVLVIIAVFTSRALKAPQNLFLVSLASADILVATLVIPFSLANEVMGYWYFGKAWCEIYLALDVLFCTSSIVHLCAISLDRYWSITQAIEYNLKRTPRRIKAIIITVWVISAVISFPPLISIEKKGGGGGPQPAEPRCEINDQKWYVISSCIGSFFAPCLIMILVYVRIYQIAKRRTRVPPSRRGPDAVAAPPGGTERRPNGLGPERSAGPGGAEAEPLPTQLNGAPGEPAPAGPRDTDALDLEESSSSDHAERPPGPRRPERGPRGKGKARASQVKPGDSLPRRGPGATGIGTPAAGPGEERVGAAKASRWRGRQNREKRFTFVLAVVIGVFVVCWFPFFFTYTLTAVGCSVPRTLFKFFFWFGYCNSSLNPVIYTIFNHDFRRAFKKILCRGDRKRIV
The experiment in a line: [3H]Rauwolscine equilibrium competition binding, human α2a-AR expressed in CHO cells. The following applies: for Ki: human α2a-AR in CHO cells; for α2a/α2b Selectivity = Ki(α2b)/Ki(α2a): Table 1, ratio of Ki values.

Test [3] deals with T3, human α2b-AR (Homo sapiens, UniProt P18089).
T3 construct: expressed in transfected cells
T3 sequence (P18089 1-450): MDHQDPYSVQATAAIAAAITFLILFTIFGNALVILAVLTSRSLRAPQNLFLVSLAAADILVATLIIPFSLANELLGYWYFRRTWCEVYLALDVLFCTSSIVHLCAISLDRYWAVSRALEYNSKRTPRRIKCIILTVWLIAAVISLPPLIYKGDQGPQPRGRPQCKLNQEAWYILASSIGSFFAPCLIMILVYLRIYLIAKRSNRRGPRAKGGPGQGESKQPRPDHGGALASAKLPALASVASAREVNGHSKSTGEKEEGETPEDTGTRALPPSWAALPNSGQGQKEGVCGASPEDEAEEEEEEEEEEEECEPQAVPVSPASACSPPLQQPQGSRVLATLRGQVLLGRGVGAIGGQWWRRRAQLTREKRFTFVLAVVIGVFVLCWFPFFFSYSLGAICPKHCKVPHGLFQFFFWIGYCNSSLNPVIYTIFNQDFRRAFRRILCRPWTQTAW
Nature of the test: [3H]Rauwolscine equilibrium competition binding, human α2b-AR expressed in CHO cells.

For test [4], the system named is cremaster muscle arterioles (A3-A4 resistance vessels). Nature of the test: Intravital microscopy of mouse cremaster muscle arterioles. The following applies: 37° C., systemic administration via femoral vein, n=6. The test is classed as in vivo, male C57-BL mice. The method, then:
Male C57-BL mice age 7-8 weeks and weighing approximately 20 g were used for the study. Prior to surgery animals were anesthetized with an i.m. injection of […] of Ketaset (87 mg ketamine/mL+13 mg xylazine/mL). Body temperature was maintained at ˜37° C. by convective heating. The animal was supinated and a midline incision was made in the ventro-cervical region and the underlying tissues bisected laterally to expose the trachea. A tracheotomy was performed and the animal intubated directly with PE50 tubing to facilitate ventilation, and the wound closed. The left rear limb was incised to expose the femoral neurovascular bundle, and the femoral vein isolated and catheterized with PE10 tubing attached to a syringe of normal saline. […]. […]
All experiments were carried out using an industrial grade microscope (Nikon MM-11) with two light sources, bright field (Opti-Quip 75 W xenon) and fluorescent (Nikon 150 W mercury). […] Experiments are viewed on a video monitor and recorded on digital tapes for off-line processing. The video images are analyzed off-line using the MetaMorph software (Universal Imaging Co.) on a Dell Optiplex GX-1. […]
The prepared animal was placed on the stage of the microscope on either the surgery board with the translumination window or on a stereotaxic frame. […] The blood pressure was monitored with a Kent Scientific XBP-1000 unit.

Where [5] appears, read: Table 2, mean ± SEM of n = 4-6, read-out: pKi α2a-AR (converted).
The mark [6] stands for this setting: [3H]rauwolscine 2.54 nM, mean ± SEM of four to nine experiments, read-out: Ki = SEM (nM) α2a-AR.
Where [7] appears, read: [3H]rauwolscine 2.54 nM, mean ± SEM of four to nine experiments, read-out: Ki = SEM (nM) α2b-AR.
Setting [8] is: Table 2, mean ± SEM of n = 4-6, read-out: pKi α2b-AR (converted).

With `O=C(NCCCCCNC(=O)[C@@H]1[C@H]2C[C@H]3c4[nH]c5ccccc5c4CCN3C[C@@H]2CC[C@@H]1O)[C@@H]1[C@H]2C[C@H]3c4[nH]c5ccccc5c4CCN3C[C@@H]2CC[C@@H]1O` [Compound 3d], the values for the Ki in test [1], in test [2] (setting [5]) and in test [2] (setting [6]) were 10.7 nM, 6.17 nM and 1.73 ± 0.26 nM, respectively.
As to `O=C(NCCCCCCCCCCNC(=O)[C@@H]1[C@H]2C[C@H]3c4[nH]c5ccccc5c4CCN3C[C@@H]2CC[C@@H]1O)[C@@H]1[C@H]2C[C@H]3c4[nH]c5ccccc5c4CCN3C[C@@H]2CC[C@@H]1O` [Compound 3i], the Ki turned out to be 18.6 ± 1.6 nM in test [3] (setting [7]) and 0.39 ± 0.08 nM in test [2] (setting [6]). For the same compound, the “α2a/α2b Selectivity = Ki(α2b)/Ki(α2a)” value in test [2] stood at 47.7.
`O=C(NCCCCCCCCNC(=O)[C@@H]1[C@H]2C[C@H]3c4[nH]c5ccccc5c4CCN3C[C@@H]2CC[C@@H]1O)[C@@H]1[C@H]2C[C@H]3c4[nH]c5ccccc5c4CCN3C[C@@H]2CC[C@@H]1O` [Compound 3g]: the Ki in test [3] (setting [7]) is 46 ± 7.6 nM; in test [2] (setting [6]) it was 0.76 ± 0.12 nM. Also, the “α2a/α2b Selectivity = Ki(α2b)/Ki(α2a)” value in test [2] came to 60.5.
Consider `O=C(NCCNC(=O)[C@@H]1[C@H]2C[C@H]3c4[nH]c5ccccc5c4CCN3C[C@@H]2CC[C@@H]1O)[C@@H]1[C@H]2C[C@H]3c4[nH]c5ccccc5c4CCN3C[C@@H]2CC[C@@H]1O` [Compound 3a], for which the Ki was 3160 nM in test [3] (setting [8]); 1510 ± 262 nM in test [3] (setting [7]); 3.55 nM in test [1]; 93.3 nM in test [2] (setting [5]); 26.4 ± 7.3 nM in test [2] (setting [6]).
Consider `O=C(NCCCCNC(=O)[C@@H]1[C@H]2C[C@H]3c4[nH]c5ccccc5c4CCN3C[C@@H]2CC[C@@H]1O)[C@@H]1[C@H]2C[C@H]3c4[nH]c5ccccc5c4CCN3C[C@@H]2CC[C@@H]1O` [Compound 3c], for which the Ki in test [3] (setting [8]) was 398 nM; in test [3] (setting [7]), 189 ± 38.1 nM; in test [1] it was 8.32 nM; in test [2] (setting [5]), 53.7 nM; in test [2] (setting [6]) it was 15.3 ± 6.2 nM.
Regarding `COC(=O)[C@@H]1[C@H]2C[C@H]3c4[nH]c5ccccc5c4CCN3C[C@@H]2CC[C@@H]1O` [Yohimbine, reference compound], the “increase in vessel diameter” value in test [4] stood at 22.14±1.08%. Further, the “binding affinity for α2c-AR greater than on the α1-AR subtypes” value in test [1] (from Table 3) was “at least 4400 fold”.
Take `O=C(NCCCCCCCNC(=O)[C@@H]1[C@H]2C[C@H]3c4[nH]c5ccccc5c4CCN3C[C@@H]2CC[C@@H]1O)[C@@H]1[C@H]2C[C@H]3c4[nH]c5ccccc5c4CCN3C[C@@H]2CC[C@@H]1O` [Compound 3f]: the figures for the Ki in test [1], in test [2] (setting [5]) and in test [2] (setting [6]) were 3.39 nM, 3.09 nM and 0.87 ± 0.18 nM, respectively.
Take `O=C(NCCCCCCNC(=O)[C@@H]1[C@H]2C[C@H]3c4[nH]c5ccccc5c4CCN3C[C@@H]2CC[C@@H]1O)[C@@H]1[C@H]2C[C@H]3c4[nH]c5ccccc5c4CCN3C[C@@H]2CC[C@@H]1O` [Compound 3e]: the Ki was 288 nM in test [3] (setting [8]); 166 ± 56.7 nM in test [3] (setting [7]); 6.92 nM in test [1]; 4.47 nM in test [2] (setting [5]); 1.35 ± 0.27 nM in test [2] (setting [6]).
